Drawing on US12275731B2, “Azaindole inhibitors of wild-type and mutant forms of LRRK2” (DANA-FARBER CANCER INSTITUTE, INC., priority 2018, dated 2025), this text covers remaining binding for three compounds.

Assay in all cases: KinomeScan profiling
What all share (format): binding

For one assay, the target named is T1, AKT1 (Homo sapiens, UniProt P31749).
T1 construct: purchased KinomeScan®
To be noted: AKT1, 1 μM; read-out: % control. The method in brief:
(§1)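 Luminescence (RLU) was converted to percent of control, with DMSO set as 100% and a reference compound as 0%. Test compounds were run at 1 μM against 468 kinases. Kinases showing below 35% of control were scored as bound.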

A further assay concerns the target MEK1 (Homo sapiens, UniProt Q02750). Particulars: MEK1, 1 μM; read-out: % control. The method in brief:
as §1

The target of a further assay is HIPK3 (Homo sapiens, UniProt Q9H422). To be noted: HIPK3, 1 μM; read-out: % control. In short, it runs like this:
as §1

The target of the next assay is FGFR3(G697C) (Homo sapiens, UniProt P22607, G697C). To be noted: read-out: % control. In short, it runs like this:
as §1

The target in the next assay is T2, LATS2 (Homo sapiens, UniProt Q9NRM7).
T2 sequence (Q9NRM7 1-1088): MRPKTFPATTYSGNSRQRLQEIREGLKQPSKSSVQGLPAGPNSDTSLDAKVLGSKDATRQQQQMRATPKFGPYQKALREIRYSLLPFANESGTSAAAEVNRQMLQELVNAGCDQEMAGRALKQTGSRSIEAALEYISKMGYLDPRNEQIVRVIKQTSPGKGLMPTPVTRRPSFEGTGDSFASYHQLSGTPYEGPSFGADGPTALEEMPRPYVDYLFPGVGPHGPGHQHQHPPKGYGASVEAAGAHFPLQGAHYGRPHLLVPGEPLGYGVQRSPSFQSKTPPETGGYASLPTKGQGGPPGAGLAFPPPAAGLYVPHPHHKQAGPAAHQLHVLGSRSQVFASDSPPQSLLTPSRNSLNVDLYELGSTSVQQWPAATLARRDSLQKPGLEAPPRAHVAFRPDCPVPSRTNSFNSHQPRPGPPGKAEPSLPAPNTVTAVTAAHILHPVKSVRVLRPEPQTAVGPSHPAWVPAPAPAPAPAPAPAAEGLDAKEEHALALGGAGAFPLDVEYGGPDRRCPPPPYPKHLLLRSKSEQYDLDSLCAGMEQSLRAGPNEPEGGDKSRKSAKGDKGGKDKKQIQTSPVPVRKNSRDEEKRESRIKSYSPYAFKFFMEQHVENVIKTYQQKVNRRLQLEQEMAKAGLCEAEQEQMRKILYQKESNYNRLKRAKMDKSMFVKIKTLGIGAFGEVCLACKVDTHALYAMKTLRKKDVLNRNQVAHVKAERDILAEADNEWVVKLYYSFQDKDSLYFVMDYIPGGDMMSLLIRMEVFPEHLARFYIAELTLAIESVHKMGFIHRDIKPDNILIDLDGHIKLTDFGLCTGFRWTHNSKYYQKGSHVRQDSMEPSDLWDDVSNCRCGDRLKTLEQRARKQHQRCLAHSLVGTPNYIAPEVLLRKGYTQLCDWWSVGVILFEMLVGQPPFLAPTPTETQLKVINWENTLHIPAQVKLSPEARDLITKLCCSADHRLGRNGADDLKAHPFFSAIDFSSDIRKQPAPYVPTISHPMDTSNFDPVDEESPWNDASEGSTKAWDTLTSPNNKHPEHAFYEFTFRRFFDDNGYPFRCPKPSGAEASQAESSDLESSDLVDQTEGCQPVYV
To be noted: LATS2, 1 μM; read-out: % control. The method in brief:
as §1

The target of another assay is CLK3 (Homo sapiens, UniProt P49761). To be noted: CLK3, 1 μM; read-out: % control. In short, it runs like this: as §1
For another assay, the target named is EGFR(L861Q) (Homo sapiens, UniProt P00533, L861Q). Particulars: read-out: % control. The method in brief: as §1
A further assay has as its target PHKG1 (Homo sapiens, UniProt Q16816). To be noted: PHKG1, 1 μM; read-out: % control. The method in brief:
as §1

The target of a further assay is MINK (Homo sapiens, UniProt Q8N4C8). Particulars: read-out: % control. In short, it runs like this:
as §1

Another assay addresses FYN (Homo sapiens, UniProt P06241). Particulars: read-out: % control. The method in brief: as §1
Another assay deals with T3, PRKCE (Homo sapiens, UniProt Q02156).
T3 sequence (Q02156 1-737): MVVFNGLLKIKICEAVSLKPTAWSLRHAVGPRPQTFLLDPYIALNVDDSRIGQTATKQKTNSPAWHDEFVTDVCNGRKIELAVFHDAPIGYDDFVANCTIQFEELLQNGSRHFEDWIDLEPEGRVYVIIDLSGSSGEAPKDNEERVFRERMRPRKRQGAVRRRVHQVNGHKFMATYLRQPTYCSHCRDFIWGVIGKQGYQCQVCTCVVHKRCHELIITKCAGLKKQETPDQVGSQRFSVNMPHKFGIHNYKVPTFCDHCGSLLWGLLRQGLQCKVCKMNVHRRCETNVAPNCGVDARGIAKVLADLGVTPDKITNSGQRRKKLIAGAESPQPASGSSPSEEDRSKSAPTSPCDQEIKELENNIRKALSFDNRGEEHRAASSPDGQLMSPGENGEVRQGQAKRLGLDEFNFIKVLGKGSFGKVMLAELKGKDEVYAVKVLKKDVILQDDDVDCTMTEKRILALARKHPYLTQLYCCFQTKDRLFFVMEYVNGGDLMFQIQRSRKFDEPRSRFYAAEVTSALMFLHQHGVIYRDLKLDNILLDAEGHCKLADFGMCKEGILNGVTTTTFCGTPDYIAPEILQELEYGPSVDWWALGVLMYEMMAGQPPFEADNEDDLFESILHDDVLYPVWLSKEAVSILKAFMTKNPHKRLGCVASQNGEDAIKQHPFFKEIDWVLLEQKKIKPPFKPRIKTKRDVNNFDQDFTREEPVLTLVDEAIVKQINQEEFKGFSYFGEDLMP
Particulars: read-out: % control. In short, it runs like this:
as §1

A further assay has as its target OSR1 (Homo sapiens, UniProt O95747). To be noted: OSR1, 1 μM; read-out: % control. In short, it runs like this:
as §1

The structures appear in SMILES notation.

Sequence of OSR1 (O95747 whole entry): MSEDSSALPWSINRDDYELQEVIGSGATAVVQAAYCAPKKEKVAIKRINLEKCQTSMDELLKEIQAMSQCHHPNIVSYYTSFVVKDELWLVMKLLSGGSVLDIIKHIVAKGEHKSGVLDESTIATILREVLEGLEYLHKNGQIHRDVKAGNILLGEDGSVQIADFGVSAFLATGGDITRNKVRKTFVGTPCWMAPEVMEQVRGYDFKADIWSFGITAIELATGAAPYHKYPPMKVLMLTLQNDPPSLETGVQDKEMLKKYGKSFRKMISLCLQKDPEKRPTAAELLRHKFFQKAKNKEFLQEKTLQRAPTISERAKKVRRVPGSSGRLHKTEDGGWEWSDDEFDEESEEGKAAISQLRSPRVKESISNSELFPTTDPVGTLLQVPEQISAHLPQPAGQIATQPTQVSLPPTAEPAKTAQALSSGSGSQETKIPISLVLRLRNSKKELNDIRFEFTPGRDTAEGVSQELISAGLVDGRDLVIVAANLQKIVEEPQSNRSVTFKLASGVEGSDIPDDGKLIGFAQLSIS
Sequence of CLK3 (P49761 whole entry): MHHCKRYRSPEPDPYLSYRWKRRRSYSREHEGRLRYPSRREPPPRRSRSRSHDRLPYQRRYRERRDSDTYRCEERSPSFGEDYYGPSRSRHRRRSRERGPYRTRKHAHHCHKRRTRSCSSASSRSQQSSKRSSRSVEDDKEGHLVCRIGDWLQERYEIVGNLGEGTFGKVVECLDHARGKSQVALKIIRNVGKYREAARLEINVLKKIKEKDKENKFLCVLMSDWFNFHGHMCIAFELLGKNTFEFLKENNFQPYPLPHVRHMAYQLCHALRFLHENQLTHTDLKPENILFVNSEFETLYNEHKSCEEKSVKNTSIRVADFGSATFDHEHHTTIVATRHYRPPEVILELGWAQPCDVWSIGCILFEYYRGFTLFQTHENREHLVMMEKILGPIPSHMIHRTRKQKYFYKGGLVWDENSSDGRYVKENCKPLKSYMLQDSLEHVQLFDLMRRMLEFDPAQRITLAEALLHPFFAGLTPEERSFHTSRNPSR
Sequence of HIPK3 (Q9H422 whole entry): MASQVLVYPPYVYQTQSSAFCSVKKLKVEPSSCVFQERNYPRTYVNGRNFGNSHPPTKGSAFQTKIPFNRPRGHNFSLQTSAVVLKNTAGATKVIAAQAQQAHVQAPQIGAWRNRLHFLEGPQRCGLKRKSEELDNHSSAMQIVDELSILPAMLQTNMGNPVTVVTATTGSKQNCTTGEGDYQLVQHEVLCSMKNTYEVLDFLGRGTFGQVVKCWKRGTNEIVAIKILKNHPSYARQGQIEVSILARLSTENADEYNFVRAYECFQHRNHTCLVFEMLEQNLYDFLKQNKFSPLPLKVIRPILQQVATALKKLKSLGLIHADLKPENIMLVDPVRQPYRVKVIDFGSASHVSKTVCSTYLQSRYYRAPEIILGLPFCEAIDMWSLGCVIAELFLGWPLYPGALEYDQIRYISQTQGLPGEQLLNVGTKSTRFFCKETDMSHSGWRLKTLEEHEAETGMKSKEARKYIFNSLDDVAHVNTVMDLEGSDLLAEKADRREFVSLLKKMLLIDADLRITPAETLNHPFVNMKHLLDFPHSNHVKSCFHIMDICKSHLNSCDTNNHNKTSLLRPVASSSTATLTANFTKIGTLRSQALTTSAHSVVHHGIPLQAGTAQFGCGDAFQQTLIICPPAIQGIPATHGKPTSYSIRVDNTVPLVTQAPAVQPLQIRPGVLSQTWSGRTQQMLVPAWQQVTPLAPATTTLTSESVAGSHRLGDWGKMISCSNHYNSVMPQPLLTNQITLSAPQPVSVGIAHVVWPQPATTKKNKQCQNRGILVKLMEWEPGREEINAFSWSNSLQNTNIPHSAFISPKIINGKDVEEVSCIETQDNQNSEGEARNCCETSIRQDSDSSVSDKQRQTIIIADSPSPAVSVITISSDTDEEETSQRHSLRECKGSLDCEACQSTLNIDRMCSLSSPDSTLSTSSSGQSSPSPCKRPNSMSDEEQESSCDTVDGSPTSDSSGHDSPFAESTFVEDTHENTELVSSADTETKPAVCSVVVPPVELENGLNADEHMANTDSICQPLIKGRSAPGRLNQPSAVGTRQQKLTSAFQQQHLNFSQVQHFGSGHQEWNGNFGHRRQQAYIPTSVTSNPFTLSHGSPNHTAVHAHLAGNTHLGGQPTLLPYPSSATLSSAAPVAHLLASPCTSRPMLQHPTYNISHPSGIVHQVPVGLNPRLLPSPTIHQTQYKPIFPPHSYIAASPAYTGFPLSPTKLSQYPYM
Sequence of EGFR(L861Q) (P00533 25-1210 L861Q): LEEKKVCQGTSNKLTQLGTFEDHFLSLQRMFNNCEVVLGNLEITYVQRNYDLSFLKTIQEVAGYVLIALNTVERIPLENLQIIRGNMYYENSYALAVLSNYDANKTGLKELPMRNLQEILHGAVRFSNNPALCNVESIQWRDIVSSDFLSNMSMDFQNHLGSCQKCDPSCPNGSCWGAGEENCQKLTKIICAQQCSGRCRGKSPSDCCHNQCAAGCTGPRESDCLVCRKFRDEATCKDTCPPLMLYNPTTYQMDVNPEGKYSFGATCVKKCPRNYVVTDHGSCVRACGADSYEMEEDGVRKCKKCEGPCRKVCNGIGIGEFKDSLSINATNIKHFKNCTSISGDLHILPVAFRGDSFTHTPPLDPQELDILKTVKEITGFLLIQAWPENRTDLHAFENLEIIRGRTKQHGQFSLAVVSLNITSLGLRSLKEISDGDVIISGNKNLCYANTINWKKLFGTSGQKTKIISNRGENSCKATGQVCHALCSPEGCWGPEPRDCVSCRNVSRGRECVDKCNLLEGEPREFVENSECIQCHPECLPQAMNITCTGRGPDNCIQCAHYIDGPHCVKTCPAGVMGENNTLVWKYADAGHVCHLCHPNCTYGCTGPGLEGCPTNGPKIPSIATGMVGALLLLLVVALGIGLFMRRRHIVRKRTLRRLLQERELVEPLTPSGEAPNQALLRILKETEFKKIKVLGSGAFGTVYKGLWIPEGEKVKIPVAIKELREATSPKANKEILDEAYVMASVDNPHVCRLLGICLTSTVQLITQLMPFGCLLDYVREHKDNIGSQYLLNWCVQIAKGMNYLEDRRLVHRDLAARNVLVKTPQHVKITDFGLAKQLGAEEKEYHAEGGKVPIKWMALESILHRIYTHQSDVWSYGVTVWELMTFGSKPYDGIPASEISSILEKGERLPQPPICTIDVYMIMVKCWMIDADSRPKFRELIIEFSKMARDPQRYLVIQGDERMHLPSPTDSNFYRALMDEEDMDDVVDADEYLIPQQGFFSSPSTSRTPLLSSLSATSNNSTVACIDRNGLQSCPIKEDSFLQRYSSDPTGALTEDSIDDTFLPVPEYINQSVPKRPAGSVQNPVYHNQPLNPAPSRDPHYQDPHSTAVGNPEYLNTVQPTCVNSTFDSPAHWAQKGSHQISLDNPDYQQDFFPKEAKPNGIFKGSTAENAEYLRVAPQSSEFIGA
Sequence of PHKG1 (Q16816 whole entry): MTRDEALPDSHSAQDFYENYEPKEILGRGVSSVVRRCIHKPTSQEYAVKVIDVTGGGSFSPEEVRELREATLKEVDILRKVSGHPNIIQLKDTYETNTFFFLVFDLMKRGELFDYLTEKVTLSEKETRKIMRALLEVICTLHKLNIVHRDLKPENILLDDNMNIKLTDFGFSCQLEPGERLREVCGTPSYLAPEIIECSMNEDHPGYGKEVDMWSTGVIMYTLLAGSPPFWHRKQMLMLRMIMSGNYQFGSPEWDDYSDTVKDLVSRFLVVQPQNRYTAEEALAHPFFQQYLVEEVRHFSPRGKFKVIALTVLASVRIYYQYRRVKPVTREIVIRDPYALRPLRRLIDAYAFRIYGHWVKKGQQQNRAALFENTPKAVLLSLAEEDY
Sequence of FGFR3(G697C) (P22607 23-806 G697C): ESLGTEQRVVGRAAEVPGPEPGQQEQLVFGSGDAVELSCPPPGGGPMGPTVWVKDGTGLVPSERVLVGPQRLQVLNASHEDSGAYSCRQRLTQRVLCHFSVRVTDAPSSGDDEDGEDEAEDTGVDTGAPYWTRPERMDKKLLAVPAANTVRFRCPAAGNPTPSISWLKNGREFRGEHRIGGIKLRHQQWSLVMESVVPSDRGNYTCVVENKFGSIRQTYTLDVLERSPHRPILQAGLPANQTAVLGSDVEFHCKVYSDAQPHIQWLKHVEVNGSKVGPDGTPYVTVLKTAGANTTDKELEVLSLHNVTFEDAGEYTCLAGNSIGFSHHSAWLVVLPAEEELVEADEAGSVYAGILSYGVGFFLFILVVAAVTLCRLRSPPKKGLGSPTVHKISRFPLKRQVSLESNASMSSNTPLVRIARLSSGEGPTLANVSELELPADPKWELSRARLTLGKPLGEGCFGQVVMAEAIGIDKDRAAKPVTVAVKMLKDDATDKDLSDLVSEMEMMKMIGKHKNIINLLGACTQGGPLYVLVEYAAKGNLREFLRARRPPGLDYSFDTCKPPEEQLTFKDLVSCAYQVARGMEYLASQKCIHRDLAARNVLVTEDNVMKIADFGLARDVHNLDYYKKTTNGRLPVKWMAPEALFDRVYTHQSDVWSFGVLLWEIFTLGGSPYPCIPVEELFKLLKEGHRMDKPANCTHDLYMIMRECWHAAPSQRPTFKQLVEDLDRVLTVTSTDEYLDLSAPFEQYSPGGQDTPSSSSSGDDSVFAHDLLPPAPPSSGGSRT
Sequence of MEK1 (Q02750 whole entry): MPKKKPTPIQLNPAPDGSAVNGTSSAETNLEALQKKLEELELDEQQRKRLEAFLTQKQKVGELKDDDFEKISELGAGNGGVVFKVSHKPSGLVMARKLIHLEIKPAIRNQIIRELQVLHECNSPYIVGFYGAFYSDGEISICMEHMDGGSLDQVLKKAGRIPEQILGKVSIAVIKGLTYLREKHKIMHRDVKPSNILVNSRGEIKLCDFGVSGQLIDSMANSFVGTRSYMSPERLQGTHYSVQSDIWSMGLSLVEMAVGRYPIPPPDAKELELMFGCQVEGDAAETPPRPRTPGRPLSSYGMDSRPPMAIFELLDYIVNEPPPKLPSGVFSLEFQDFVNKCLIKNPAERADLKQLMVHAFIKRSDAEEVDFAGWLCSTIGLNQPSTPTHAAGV

For the compound `CNc1c(-c2cnn([C@H]3CCN(C(C)=O)C[C@@H]3F)c2)cnc2[nH]cc(Cl)c12` [Compound 77, 1-((3S,4S)-4-(4-(3-chloro-4-(methylamino)-1H-pyrrolo[2,3-b]pyridin-5-yl)-1H-pyrazol-1-yl)-3-fluoropiperidin-1-yl)ethan-1-one], the remaining binding at 1 µM is 100% on AKT1; 29% at MEK1; 85% on HIPK3; 51% at FGFR3(G697C); 86% at LATS2; 88% at CLK3. Also, the remaining binding at 1 µM on EGFR(L861Q) is 96%; at PHKG1, 100%; at MINK, 17%; on FYN, 94%; at PRKCE, 51%; at OSR1 it was 75%.

Take `CNc1c(-c2ccc(C(=O)N3CCC(N4CCOCC4)CC3)cc2)cnc2[nH]cc(Cl)c12` [Compound 96, (4-(3-chloro-4-(methylamino)-1H-pyrrolo[2,3-b]pyridin-5-yl)phenyl)(4-morpholinopiperidin-1-yl)methanone]: the remaining binding at 1 µM at AKT1 was 100%; at MEK1 it was 12%; at HIPK3, 79%; at FGFR3(G697C), 55%; on LATS2, 78%; at CLK3, 98%. The remaining binding at 1 µM came to 90% at EGFR(L861Q); 86% at PHKG1; 6% at MINK; 96% on FYN; 66% on PRKCE; 66% at OSR1.

As for `O=C(c1ccc(-c2cnc3[nH]cc(Cl)c3c2NC2CCCC2)cc1)N1CCC(N2CCOCC2)CC1` [Compound 101, (4-(3-chloro-4-(cyclopentylamino)-1H-pyrrolo[2,3-b]pyridin-5-yl)phenyl)(4-morpholinopiperidin-1-yl)methanone], the remaining binding at 1 µM on AKT1 came out at 96%; on MEK1, 94%; on HIPK3, 100%; at FGFR3(G697C) it was 74%; at LATS2 it was 82%; at CLK3, 97%. Besides, the remaining binding at 1 µM at EGFR(L861Q) is 89%; at PHKG1, 87%; on MINK it was 62%; at FYN, 87%; on PRKCE it was 70%; at OSR1 it was 100%.
